According to patent US20230339915A1 (Vertex Pharmaceuticals Incorporated, priority 2020, published 2023):

Experiments:
[1] = molecular target: purified Z-AAT protein from human plasma (Homo sapiens (Human), UniProt P01009, E366K); experiment: Biochemical Assay (Z-AAT Elastase Activity Assay); settings: purified Z-AAT pre-incubated with compound 1 hour, then human neutrophil elastase and fluorescent substrate
From the text: B. Biochemical Assay (Z-AAT Elastase Activity Assay)
This assay measured the modulation of Compounds 1-227 on Z-AAT SERpIN activity using purified Z-AAT protein and purified human neutrophil elastase (hNE). Normally, when active monomeric Z-AAT encounters a protease such as trypsin or elastase, it forms a 1:1 covalent “suicide” complex in which both the AAT and protease are irreversibly inactivated. However, compounds binding to Z-AAT can lead to a decrease in SERpIN activity. In such cases, when a protease encounters compound-bound Z-AAT, the protease cleaves and inactivates Z-AAT without itself being inactivated.
Reagents • PBS buffer (media prep)+0.01% BRIJ35 detergent (Calbiochem catalog #203728) Opti-MEM media (Fisher 11058-021) • Human neutrophil elastase (hNE, Athens Research #16-14-051200) • 3.4 μM stock (0.1 mg/mL) prepared in 50 mM Na Acetate, pH 5.5, 150 mM NaCl, stored at −80° C. • Elastase substrate V (ES V, fluorescent peptide substrate MeOSuc-Ala-Ala-Pro-Val-AMC, Calbiochem catalog #324740) • 20 mM stock in DMSO, stored at −20° C. • Purified Z-AAT protein from human plasma; • 12.9 μM (0.67 mg/mL) Z-AAT Vertex Cambridge Sample 4942, from patient • #061-SSN, stored at −80 C
Plates • Corning 4511 (384 well black low volume)
Instruments • PerkinElmer® EnVision™
Pre-Incubation of Z-AAT with Compounds • 1. 7.5 μL of Z-AAT (20 nM) was incubated with compounds 1-227 in a GCA plate for 1 hour at room temperature
Addition of hNE • 1. 7.5 ul of HNE solution (3 nM in PBS+0.01% BRIJ35) added into GCA plate • 2. Incubate plate for 30 minutes to allow Z-AAT/HNE suicide complex formation.
Addition of Substrate and Read Plate on PE Envision • 1. 7.5 μL of substrate (300 μM solution of elastase substrate (ES V) in PBS+0.01% BRIJ35) dispensed per well into GCA plate • 2. Immediately read on Envision.

[2] = molecular target: NL20 human bronchial epithelial cells expressing human Z-AAT (Homo sapiens (Human), UniProt P01009, E366K); experiment: AAT Function Assay (MSD Assay NL20-SI Cell Line); type: cell-based; settings: functionally active AAT (AAT-hNE complex, MSD) in supernatant of NL20 cells expressing human Z-AAT; read-out: NL20 Functional EC50
Chain of NL20 human bronchial epithelial cells expressing human Z-AAT (P01009 25-418 E366K limits assumed): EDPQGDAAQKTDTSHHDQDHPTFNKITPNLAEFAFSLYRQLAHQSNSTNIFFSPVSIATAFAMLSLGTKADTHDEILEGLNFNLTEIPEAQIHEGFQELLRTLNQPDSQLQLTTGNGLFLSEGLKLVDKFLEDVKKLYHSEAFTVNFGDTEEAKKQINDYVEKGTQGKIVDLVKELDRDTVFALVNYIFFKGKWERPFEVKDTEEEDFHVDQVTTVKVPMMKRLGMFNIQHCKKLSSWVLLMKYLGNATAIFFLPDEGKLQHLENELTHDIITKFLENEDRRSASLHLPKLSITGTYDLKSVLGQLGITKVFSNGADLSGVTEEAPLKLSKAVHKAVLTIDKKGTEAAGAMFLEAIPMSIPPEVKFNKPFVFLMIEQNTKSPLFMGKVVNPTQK
Protocol: A. AAT Function Assay (MSD Assay NL20-SI Cell Line)
Alpha-1 antitrypsin (AAT) is a SERpIN (serine protease inhibitor) that inactivates enzymes by binding to them covalently. This assay measured the amount of functionally active AAT in a sample in the presence of the disclosed Compounds 1-227 by determining the ability of AAT to form an irreversible complex with human neutrophil Elastase (hNE). In practice, the sample (cell supernatant, blood sample, or other) was incubated with excess hNE to allow AAT-Elastase complex to be formed with all functional AAT in the sample. This complex was then captured to a microplate coated with an anti-AAT antibody. The complex captured to the plate was detected with a labeled anti-Elastase antibody and quantitated using a set of AAT standards spanning the concentration range present in the sample. Meso Scale Discovery (MSD) plate reader, Sulfo-tag labeling, and microplates were used to provide high sensitivity and wide dynamic range.
Instrument(S): • Meso Sector S600 • Bravo • Washer dispenser • Multidrop Combi
Day 1 Cell Culture • 1. Harvest NL20 human bronchial epithelial cells expressing human Z-AAT in OptiMEM™ containing Pen/Strep (P/S) • 2. Seed at 16,000 cells/well in 30 μL (384 well plate) • 3. Centrifuge plates briefly up to speed (1200 rpm) and place into 37° C. incubator overnight
Day 2: Compound Addition and Coating Plates with Capture Antibody
Compound Addition: • 1. Dispense 40 μL of OptiMEM™ (P/S) with doxycycline (1:1000 stock=0.1 μM final) to each well of the compound plate using a multidrop Combi in hood • 2. Remove cell plate from incubator, flip/blot and take immediately to Bravo to transfer compounds • 3. Return plates to incubator overnight
Coat MSD Plates • 1. Dilute capture antibody (Polyclonal Goat anti-AAT) to 5 μg/mL (1:200) in PBS (no BSA). • 2. Dispense 25 μL of diluted capture antibody into all wells of MSD 384-well High Bind plate using the Multidrop equipped with a standard cassette. • 3. Incubate overnight at 4° C.
Prepare Blocker A (BSA) Solutions • 1. Prepare solution of 5% MSD Blocker A (BSA) following the manufacturer's instructions. • 2. Further dilute the 5% MSD Blocker A in PBS to 1% (Blocker A) as needed.
Block Plates • 1. Wash plate 1× with 50 μL Wash buffer (PBS+0.5% Tween 20), and adds 35 μL 5% Block A buffer to block non-specific binding on washer dispenser • 2. Rotate plates on shaker for 1 hour at 600 rpm
Prepare M-AA T Standards • 1. Dilute M-AAT stock to 1.6 μg/mL in 1% BSA Blocker A (Stock in −70° C.); then prepare 12×1:2 serial dilutions in 1% Blocker A • 2. The top starting final concentration on MSD plate is 320 ng/mL. These dilutions correspond to a final concentration of 320, 160, 80, 40, 20, 10, 5, 2.5, 1.25, 0.625, 0.312, 0.156 ng/mL.
Dilution Plate • 1. Add 80 μL of 1% Assay buffer to all wells except columns 1/24 (standards) with Multidrop Combi • 2. Add diluted standards to columns 1 and 24 • 3. Centrifuge dilution plates 1200 rpm briefly
Cell Plate • 1. Aspirate columns which will have the standards from the cell plates in the hood using 16-pin aspirator
Prepare Human Neutrophil Elastase (hNE) • 1. Prepare 1 μg/mL Human Neutrophil Elastase by diluting in 1% Blocker A. • a. Small 100 μg vial—add 1 mL PBS (100 μg/mL) • i. This can then be diluted 1:100 in 1% Assay Buffer for a final 1 μg/mL concentration
MSD—add hNE (20 μL/well) • 1. After the MSD plate has blocked for at least 1 hour, wash plate 1× with 50 μL Wash buffer (PBS+0.5% Tween 20) and then add 20 μL hNE to each well
Bravo—Cell Plate—Dilution Plate—MSD Plate
Using the Bravo aspirate 10 μL from the cell plate, transfer to the dilution plate (9-fold dilution) • 1. Mix 25 μL 3×, then aspirate 5 μL, transfer to MSD plate (5-fold dilution) • 2. Mix 10 μL 3×. Total dilution is 45 fold. • 3. Shake plates at 600 rpm for 1.5 hours
Add Functional Detection hNE Antibody • 1. Wash plate 1× with wash buffer • 2. […]

Chain of purified Z-AAT protein from human plasma (P01009 25-418 E366K limits assumed): as above

SMILES	IC50 [1]	EC50 [2]
O=C(O)[C@]1(C(F)(F)F)C[C@@H](c2c(C3CCOCC3)n(-c3ccc(F)c(F)c3)c3ccc(O)cc32)C1 [Compound 53]	> 30000 nM	> 2000 nM
Cc1cc(-n2c(C)c(C#N)c3cc(O)c(N)cc32)ccc1F [Compound 211, 6-amino-1-(4-fluoro-3-methylphenyl)-5-hydroxy-2-methyl-1H-indole-3-carbonitrile]	> 30000 nM	> 2000 nM
CC(C)c1c(C(C)CCC(=O)O)c2cc(O)ccc2n1-c1ccc(F)cc1 (stereo not shown) [Compound 92]	> 5000 nM	> 2000 nM
Cc1cc(-n2c(C(C)C)c([C@H]3C[C@@H]3C(=O)O)c3cc(O)ccc32)ccc1F [Compound 134]	> 5000 nM	500 to 2000 nM
Cc1cc(-n2c(C(C)C)c([C@H]3C[C@@](C)(C(=O)O)C3)c3c(F)c(O)c(F)cc32)ccc1F [Compound 23]	> 30000 nM	500 to 2000 nM
Cc1cc(-n2c(C3CCOCC3)c([C@H]3C[C@@](C)(C(=O)O)C3)c3cc(O)ccc32)ccc1F [Compound 100]	> 30000 nM	> 2000 nM
Cc1cc(-n2c(C(C)C)c([C@@H]3COC[C@@H]3C(=O)O)c3cc(O)ccc32)ccc1F (racemic) [Compound 83]	> 30000 nM	> 2000 nM
Cc1cc(-n2c(C(C)C)c(CC(C)C(=O)O)c3cc(O)ccc32)ccc1F (single isomer, unassigned) [Compound 102]	> 30000 nM	> 2000 nM
C[C@]1(C(=O)O)C[C@@H](c2c(C3CCOCC3)n(-c3ccc(F)cc3)c3ccc(O)cc32)C1 [Compound 49]	> 30000 nM	> 2000 nM
Cc1cc(-n2c(C(C)C)c(-c3cncc(C(=O)O)c3)c3cc(O)ccc32)ccc1F [Compound 172]	2000 to 5000 nM	500 to 2000 nM
N#Cc1c(C2CCC2)n(-c2ccc(F)cc2)c2ccc(O)cc12 [Compound 188]	> 30000 nM	500 to 2000 nM
Cc1cc(-n2c(C3CCOCC3)c(CCC(F)(F)C(=O)O)c3cc(O)ccc32)ccc1F [Compound 10]	> 30000 nM	> 2000 nM
Cc1cc(-n2c(C3CCOCC3)c([C@H]3C[C@@H](C(=O)O)C3)c3cc(O)ccc32)ccn1 [Compound 143]	> 30000 nM	> 2000 nM
Cc1cc(-n2c(C(C)C)c(-c3cc(C(=O)O)[nH]n3)c3cc(O)ccc32)ccc1F [Compound 179, 3-[1-(4-fluoro-3-methyl-phenyl)-5-hydroxy-2-isopropyl-indol-3-yl]-1H-pyrazole-5-carboxylic acid]	> 30000 nM	> 2000 nM
Cc1cc(-n2c(C(C)C)c(-c3ccccc3C(=O)O)c3cc(O)ccc32)ccc1F [Compound 169]	> 30000 nM	> 2000 nM
Cc1cc(-n2c(C(F)(F)F)c(C3CC4(CC(C(=O)O)C4)C3)c3cc(O)ccc32)ccc1F (stereo not shown) [Compound 140, 6-(1-(4-fluoro-3-methylphenyl)-5-hydroxy-2-(trifluoromethyl)-1H-indol-3-yl)spiro[3.3]heptane-2-carboxylic acid]	> 5000 nM	500 to 2000 nM
Cc1cc(-n2c(C)c(C#N)c3cc(O)cc(N)c32)ccc1F [Compound 212, 7-amino-1-(4-fluoro-3-methyl-phenyl)-5-hydroxy-2-methyl-indole-3-carbonitrile]	> 30000 nM	> 2000 nM
N#Cc1c(C2CNC2)n(-c2ccc(F)cc2)c2ccc(O)cc12 [Compound 196]	> 30000 nM	> 2000 nM
Cc1cc(-n2c(C(C)C)c([C@H]3CC[C@@H](C(=O)O)C3)c3cc(O)ccc32)ccc1F (racemic) [Compound 74]	> 30000 nM	> 2000 nM
O=C(O)[C@H]1C[C@H](c2c(C3CCOCC3)n(-c3ccc(F)cc3)c3ccc(O)cc32)C1 [Compound 45]	> 30000 nM	> 2000 nM
O=C(O)[C@H]1CC2(C1)C[C@H](c1c(C3CCOCC3)n(-c3ccc(F)c(Cl)c3)c3ccc(O)cc31)C2 (stereo partly shown) [Compound 33]	> 5000 nM	< 500 nM
Cc1cc(-n2c(C3CCOCC3)c(CC34CC(C(=O)O)(C3)C4)c3cc(O)ccc32)ccc1F [Compound 4]	> 30000 nM	> 2000 nM
Cc1cc(-n2c(C3CC3)c([C@H]3C[C@H](C(=O)O)C3)c3cc(O)ccc32)ccc1F [Compound 93]	> 30000 nM	> 2000 nM
Cc1cc(-n2c(C(C)C)c(CC(C)C(=O)O)c3cc(O)ccc32)ccc1F (single isomer, unassigned) [Compound 101]	> 30000 nM	> 2000 nM
COC[C@]1(C(=O)O)C[C@@H](c2c(C3CCOCC3)n(-c3ccc(F)c(C)c3)c3ccc(O)cc32)C1 [Compound 121]	> 30000 nM	> 2000 nM
Cc1cc(-n2c([C@H]3CCOC3)c([C@H]3C[C@@H](C(=O)O)C3)c3cc(O)ccc32)ccc1F [Compound 87]	> 30000 nM	> 2000 nM
CC(=O)NS(=O)(=O)N1CC(c2c(C(C)C)n(-c3ccc(F)c(C)c3)c3ccc(O)cc23)C1 [Compound 214, N-((3-(1-(4-fluoro-3-methylphenyl)-5-hydroxy-2-isopropyl-1H-indol-3-yl)azetidin-1-yl)sulfonyl)acetamide]	> 30000 nM	> 2000 nM
Cc1cc(-n2c(C(C)C)c([C@H]3C[C@](C(=O)O)(C(F)(F)F)C3)c3cc(O)ccc32)ccc1F [Compound 61]	> 5000 nM	500 to 2000 nM
Cc1cc(-n2c(C3CCOCC3)c([C@H]3C[C@H](C(=O)O)C3)c3cc(O)ccc32)ccc1F [Compound 20]	> 30000 nM	> 2000 nM
